We go through one substance from paper PMC6583902 (Biochemistry, 2013).

The test system of this assay is C. elegans Sem-5 (sex muscle five) Src-homology 3 (SH3) domain. The following applies: stated in words.

Regarding Ac-VPPXVPPRRRY [proline], the “apparent binding constant measured by ITC” value was “only in the millimolar range”.
